Data set [1] can be described thus: Drug absorption experiment in SD rats, intravenous administration. The class given is in vivo, SD rats (Sprague Dawley rats). The settings on record: for half-life / AUC(0-t) / Cmax: plasma. Here is the method: The determination method for the absolute bioavailability of the intragastric administration of the crystal forms of the mesylate salt of the compound of formula (I) is as follows: • For intravenous administration: Healthy SD rats are randomly grouped. The tested substance is administered in a certain dosage D through the intravenous administration. The blood samples are collected through the retrobulbar venous plexus before the administration and 5 min, 15 min, 0.5 h, 1.0 h, 2.0 h, 4.0 h, 8.0 h, 12 h and 24 h after the administration, and separated to give plasmas. The concentration of the drug in plasma is determined with the liquid chromatography-tandem mass spectrometry method to give a drug concentration-time curve. • For intragastric administration: Healthy SD rats are randomly grouped. The tested substance is administered in a certain dosage D through the intragastric administration. The intravenous blood samples are collected through the rat's retrobulbar venous plexus before the administration and 0.5, 1.0, 2.0, 4.0, 6.0, 8.0, 10, 12 and 24 h after the administration, and separated to give plasmas. The concentration of the drug in plasma is determined with the liquid chromatography-tandem mass spectrometry method to give a drug concentration-time curve.
For intravenous administration: 20 healthy (half male and half female) SD rats with 200-280 g body weight, provided by Shanghai Sippr-BK laboratory animal Co. Ltd., were assigned randomly to 5 groups. […] 0.2 ml of the intravenous blood samples were collected through the rat's retrobulbar venous plexus before the administration and 5 min, 15 min, 0.5 h, 1.0 h, 2.0 h, 4.0 h, 8.0 h, 12 h and 24 h after the administration, and separated to give plasmas.
The concentration of the drug in plasma was determined with the liquid chromatography-tandem mass spectrometry method to give a drug concentration-time curve.
T1/2: elimination half-life; Cmax: maximum drug concentration in plasma; AUC0-t: area under drug concentration-time curve.

The nature of data set [2]: Drug absorption experiment in SD rats, intragastric administration (incl. absolute bioavailability). Format: in vivo, SD rats (Sprague Dawley rats). Particulars: for bioavailability / F (absolute bioavailability): from AUC0-t after dosage calibration; for bioavailability: read-out: F (absolute bioavailability); for F (absolute bioavailability): intragastric 10 mg/kg vs intravenous 2.5 mg/kg. Here is the method: The determination method for the absolute bioavailability of the intragastric administration of the crystal forms of the mesylate salt of the compound of formula (I) is as follows: • For intravenous administration: Healthy SD rats are randomly grouped. The tested substance is administered in a certain dosage D through the intravenous administration. The blood samples are collected through the retrobulbar venous plexus before the administration and 5 min, 15 min, 0.5 h, 1.0 h, 2.0 h, 4.0 h, 8.0 h, 12 h and 24 h after the administration, and separated to give plasmas. […] The tested substance is administered in a certain dosage D through the intragastric administration.
After dosage calibration, the absolute bioavailability F is calculated by the area under the drug concentration-time curve (AUC0-t). The calculation equation is as follows: F=(AUCintragastric×Dintravenous)/(AUCintravenous×Dintragastric)×100%.
For intragastric administration: 20 healthy (half male and half female) SD rats with 200-280 g body weight, provided by Shanghai Sippr-BK laboratory animal Co. Ltd., were assigned randomly to 5 groups.
After dosage calibration, the absolute bioavailability F was obtained by calculation of AUC0-t. The calculation equation was as follows: F=(AUCintragastric×Dintravenous)/(AUCintravenous×Dintragastric)×100%. The obtained absolute bioavailability F data are shown in the above table 2.

Data set [3] in a line: Solubility test under different pH buffering solutions. The class given is physicochemical. Particulars: for Solubility: 24 h; for solubilities compared with the compound of formula (I) of Example 1: solvent pH values 1.0, 4.5 and 6.8, conclusion in words. The procedure:
The solubilities of the crystal forms of the mesylate salt of the compound of formula (I) may be measured according to the following method: • Each substance is weighed in an appropriate amount and placed in a brown flask. Different solvents are added. The mixtures are ultrasonically treated for 20 seconds. After the mixtures are uniformly dispersed, the mixtures are shaked at 25° C., 200 rpm for 24 h, then removed, and separated by centrifugation at 12000 rpm for 10 mins. The supernatants are removed by suction and diluted to a certain fold with the corresponding solvent. Then, the concentrations of the resulting solutions are determined by HPLC and their pH values are measured.
The compound of formula (I) of Example 1, Form I of the mesylate salt of the compound of formula (I), and Form II of the mesylate salt of the compound of formula (I) were investigated for the solubilities under different pH buffering solutions.
Test method: Each substance was weighed in an appropriate amount and placed in a brown flask. Different solvents were added. The mixtures were ultrasonically treated for 20 seconds. After the mixtures were uniformly dispersed, the mixtures were shaked at 25° C., 200 rpm for 24 h, then removed, and separated by centrifugation at 12000 rpm for 10 mins. The supernatants were removed by suction and diluted to a certain folds with the corresponding solvent. Then, the concentrations of the resulting solutions were determined by HPLC and their pH values were measured.

The mark [4] stands for this setting: Acetate buffering solution at pH = 4.5, 25° C.
Setting [5] is: Phosphate buffering solution at pH = 6.8, 25° C.
The mark [6] stands for this setting: intragastric, dosage 10 mg/kg, plasma.

Usually half-life stands for the time needed for the level to fall by half in the phase considered. Read a low half-life as fast loss. By Cmax is commonly meant the maximum level reached in the sampled fluid or tissue. In general, bioavailability refers to dose-corrected exposure relative to a reference, in per cent. By Solubility is commonly meant the dissolved amount per volume that the medium holds.

Molecules are shown by their SMILES. Converted amounts (≈) assume the structure as drawn. Structures can show the parent of a compound that is named as a salt. Where two headings read alike, the source gives them in different places.

Take `C=CC(=O)Nc1cc(Nc2nccc(-c3cn(C)c4ccccc34)n2)c(OC(C)C)nc1N(C)CCN(C)C` [Comparative Example 1, reference compound]: the half-life in data set [1] (both sexes, Sprague-Dawley, rat, iv, 3 mg/kg, dosage 3.0 mg/kg, elimination half-life) was 2.72 h. Besides, the AUC(0-t) in data set [1] (both sexes, Sprague-Dawley, rat, iv, 3 mg/kg, dosage 3.0 mg/kg, read-out: AUC0-t) was found to be 438 ng·h/mL. Moreover, in data set [1] (both sexes, Sprague-Dawley, rat, iv, 3 mg/kg, dosage 3.0 mg/kg, read-out: Cmax), the Cmax is 328 ng/mL. Moreover, in data set [2] (both sexes, Sprague-Dawley, rat, plasma, po, 6 mg/kg, intragastric 6 mg/kg vs intravenous 3.0 mg/kg), the bioavailability worked out at 8.9%.

As for `C=CC(=O)Nc1cc(Nc2ncc(Cl)c(-c3cn(C)c4ccccc34)n2)c(OC(C)C)nc1N(C)CCN(C)C` [Comparative Example 2, reference compound], the half-life in data set [1] (both sexes, Sprague-Dawley, rat, iv, 4 mg/kg, dosage 4.0 mg/kg, elimination half-life) was 1.71 h. Further, the AUC(0-t) in data set [1] (both sexes, Sprague-Dawley, rat, iv, 4 mg/kg, dosage 4.0 mg/kg, read-out: AUC0-t) amounted to 811 ng·h/mL. Besides, the Cmax in data set [1] (both sexes, Sprague-Dawley, rat, iv, 4 mg/kg, dosage 4.0 mg/kg, read-out: Cmax) came out at 630 ng/mL. In data set [2] (both sexes, Sprague-Dawley, rat, plasma, po, 10 mg/kg, intragastric 10 mg/kg vs intravenous 4.0 mg/kg), the bioavailability worked out at 8.5%.

Take `C=CC(=O)Nc1cc(Nc2nccc(-c3cn(C)c4ccccc34)n2)c(OCC(F)(F)F)nc1N(C)CCN(C)C` [Example 1, N-{2-{[2-(dimethylamino)ethyl](methyl)amino}-6-(2,2,2-trifluoroethoxy)-5-{[4-(1-methyl-1H-indol-3-yl)pyrimidin-2-yl]amino}pyridin-3-yl}acrylamide]: the Solubility in data set [3] (0.1N HCl, 25° C.) is more than 30 mg/mL; in data set [3] (setting [4]) it was 0.62 mg/mL (≈ 1090 µM); in data set [3] (setting [5]), 0.0003 mg/mL (≈ 0.528 µM).

On to `C=CC(=O)Nc1cc(Nc2nccc(-c3cn(C)c4ccccc34)n2)c(OCC(F)(F)F)nc1N(C)CCN(C)C` [Form I, Form I of the Mesylate Salt of N-{2-{[2-(dimethylamino)ethyl](methyl)amino}-6-(2,2,2-trifluoroethoxy)-5-{[4-(1-methyl-1H-indol-3-yl)pyrimidin-2-yl]amino}pyridin-3-yl}acrylamide], for which the half-life in data set [1] (both sexes, Sprague-Dawley, rat, iv, 2.5 mg/kg, dosage 2.5 mg/kg, elimination half-life) was 4.73 h; in data set [2] (both sexes, Sprague-Dawley, rat, plasma, po, 10 mg/kg, intragastric, dosage 10 mg/kg, elimination half-life), 7.98 h. In addition, the AUC(0-t) in data set [1] (both sexes, Sprague-Dawley, rat, iv, 2.5 mg/kg, dosage 2.5 mg/kg, read-out: AUC0-t) was determined as 308 ng·h/mL; in data set [2] (both sexes, Sprague-Dawley, rat, plasma, po, 10 mg/kg, intragastric, dosage 10 mg/kg, plasma, read-out: AUC0-t) it was 613 ng·h/mL. In addition, the Cmax was found to be 105 ng/mL in data set [1] (both sexes, Sprague-Dawley, rat, iv, 2.5 mg/kg, dosage 2.5 mg/kg, read-out: Cmax) and 45.3 ng/mL in data set [2] (both sexes, Sprague-Dawley, rat, plasma, po, 10 mg/kg, intragastric, dosage 10 mg/kg, plasma, read-out: Cmax). Besides, the “F (absolute bioavailability)” value in data set [2] amounted to 49.8%. The Solubility was more than 100 mg/mL in data set [3] (0.1N HCl, 25° C.); 29.05 mg/mL in data set [3] (setting [4]); 0.02 mg/mL in data set [3] (setting [5]). Further, the “solubilities compared with the compound of formula (I) of Example 1” value in data set [3] is “remarkably better”.

With `C=CC(=O)Nc1cc(Nc2nccc(-c3cn(C)c4ccccc34)n2)c(OCC(F)(F)F)nc1N(C)CCN(C)C` [Form II, Form II of the Mesylate Salt of N-{2-{[2-(dimethylamino)ethyl](methyl)amino}-6-(2,2,2-trifluoroethoxy)-5-{[4-(1-methyl-1H-indol-3-yl)pyrimidin-2-yl]amino}pyridin-3-yl}acrylamide], the T1/2 in data set [1] (dosage 2.5 mg/kg, elimination half-life) is reported as 4.83 h. In addition, the AUC(0-t) in data set [1] (dosage 2.5 mg/kg) came out at 362.0 ng·h/mL; in data set [2] (setting [6]), 566.3 ng·h/mL. In addition, the figures for the Cmax in data set [1] (dosage 2.5 mg/kg) and in data set [2] (setting [6]) were 125.4 ng/mL and 36.7 ng/mL, respectively. Moreover, the “F (absolute bioavailability)” value in data set [2] stood at 39.1%. The Solubility in data set [3] (0.1N HCl, 25° C.) was more than 100 mg/mL; in data set [3] (setting [4]) it was 61.14 mg/mL; in data set [3] (setting [5]), 0.02 mg/mL. Moreover, in data set [3], the “solubilities compared with the compound of formula (I) of Example 1” value was “remarkably better”.

The record behind these values is US10550101B2, “Crystalline forms of mesylate salt of pyridinyl amino pyrimidine derivative, preparation methods therefor, and applications thereof” (SHANGHAI ALLIST PHARMACEUTICAL AND MEDICAL TECHNOLOGY …, priority 2016, dated 2020).
